These results are taken from US9487510B2, “Substituted heterocyclic acetamides as kappa opioid receptor (KOR) agonists” (Dr. Reddy's Laboratories Ltd., priority 2012, dated 2016).

Chain of human KOR receptor (P41145 whole entry): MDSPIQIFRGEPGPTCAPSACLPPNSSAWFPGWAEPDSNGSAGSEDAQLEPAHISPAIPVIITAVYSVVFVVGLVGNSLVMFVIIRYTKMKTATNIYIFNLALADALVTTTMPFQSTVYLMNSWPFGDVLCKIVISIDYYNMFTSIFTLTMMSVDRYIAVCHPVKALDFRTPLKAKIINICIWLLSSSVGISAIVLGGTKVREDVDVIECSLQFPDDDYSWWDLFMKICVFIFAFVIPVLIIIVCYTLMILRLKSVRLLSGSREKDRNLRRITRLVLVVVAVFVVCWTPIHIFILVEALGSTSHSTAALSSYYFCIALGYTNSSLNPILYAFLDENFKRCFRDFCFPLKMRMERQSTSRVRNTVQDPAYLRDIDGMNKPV

The experiment has as its target human KOR receptor (Homo sapiens, UniProt P41145). Put plainly: IP-One HTRF assay, potency of KOR agonists, dose-response in transiently transfected COS-7 cells. In kind it is cell-based. (Time-resolved FRET reads energy transfer from a long-lived donor to a nearby acceptor.)
As for `CN(C(=O)Cc1ccc2sc(=O)[nH]c2c1)[C@H](CN1CC[C@H](O)C1)c1cccc(C(=O)O)c1` [Example 18, 3-((S)-2-((S)-3-hydroxypyrrolidin-1-yl)-1-(N-methyl-2-(2-oxo-2,3-dihydrobenzo[d]thiazol-5-yl)acetamido)ethyl)benzoic acid], the EC50 was at most 50 nM.
The figure for `CN(C(=O)Cc1ccc2sc(=O)[nH]c2c1)[C@H](CN1CC[C@H](O)C1)c1cccc(C(N)=O)c1` [Example 19, 3-((S)-2-((S)-3-hydroxypyrrolidin-1-yl)-1-(N-methyl-2-(2-oxo-2,3-dihydrobenzo [d]thiazol-5-yl)acetamido)ethyl)benzamide] is at most 50 nM; for `CN(C(=O)Cc1ccc2c(c1)N(C)S(=O)(=O)C2)[C@H](CN1CC[C@H](O)C1)c1cccc(-c2nn[nH]n2)c1` [Example 21, N-((S)-1-(3-(1H-tetrazol-5-yl)phenyl)-2-((S)-3-hydroxypyrrolidin-1-yl)ethyl)-N-methyl-2-(1-methyl-2,2-dioxido-1,3-dihydrobenzo[c]isothiazol-6-yl)acetamide] it is 51 to 100 nM.
Regarding `CN(C(=O)Cc1ccc2c(c1)NC(=O)CS2(=O)=O)[C@H](CN1CC[C@H](O)C1)c1cccc(OCC(=O)O)c1` [Example 22, 2-(3-((S)-1-(2-(1,1-dioxido-3-oxo-3,4-dihydro-2H-benzo[b][1,4]thiazin-6-yl)-N-methylacetamido)-2-((S)-3-hydroxypyrrolidin-1-yl)ethyl)phenoxy)acetic acid], the EC50 was at most 50 nM.
The figure for `CN(C(=O)Cc1ccc2c(c1)NC(=O)C2)[C@H](CN1CC[C@H](O)C1)c1cccc(C(=O)O)c1` [Example 23, 3-((S)-2-((S)-3-hydroxypyrrolidin-1-yl)-1-(N-methyl-2-(2-oxoindolin-6-yl)acetamido)ethyl) benzoic acid] is at most 50 nM.
For `CN(C(=O)Cc1ccc2c(c1)NC(=O)C2)[C@H](CN1CC[C@H](O)C1)c1cccc(C(N)=O)c1` [Example 24, 3-((S)-2-((S)-3-hydroxypyrrolidin-1-yl)-1-(N-methyl-2-(2-oxoindolin-6-yl)acetamido)ethyl) benzamide] the value was at most 50 nM; for `CN(C(=O)Cc1ccc2c(c1)NC(=O)C2)[C@H](CN1CC[C@H](F)C1)c1cccc(C#N)c1` [Example 25, N-((S)-1-(3-cyanophenyl)-2-((S)-3-fluoropyrrolidin-1-yl)ethyl)-N-methyl-2-(2-oxoindolin-6-yl)acetamide], at most 50 nM; for `CN(C(=O)Cc1ccc2c(c1)NC(=O)C2)[C@H](CN1CC[C@H](O)C1)c1cccc(OCC(N)=O)c1` [Example 26, N-((S)-1-(3-(2-amino-2-oxoethoxy)phenyl)-2-((S)-3-hydroxypyrrolidin-1-yl)ethyl)-N-methyl-2-(2-oxoindolin-6-yl)acetamide], at most 50 nM.
For `CN(C(=O)Cc1ccc2c(c1)NC(=O)C2)[C@H](CN1CC[C@H](O)C1)c1cccc(OCC(=O)NS(C)(=O)=O)c1` [Example 27, N-((S)-2-((S)-3-hydroxypyrrolidin-1-yl)-1-(3-(2-(methylsulfonamido)-2-oxoethoxy)phenyl)ethyl)-N-methyl-2-(2-oxoindolin-6-yl)acetamide] the value was 51 to 100 nM; for `CN(C(=O)Cc1ccc2c(c1)NC(=O)C2)[C@H](CN1CC[C@H](F)C1)c1cccc(C(=O)O)c1` [Example 28, 3-((S)-2-((S)-3-fluoropyrrolidin-1-yl)-1-(N-methyl-2-(2-oxoindolin-6-yl)acetamido)ethyl) benzoic acid], 101 to 1000 nM; for `CN(C(=O)Cc1ccc2c(c1)NC(=O)C2)[C@H](CN1CC[C@H](F)C1)c1cccc(OCC(=O)O)c1` [Example 29, 2-(3-((S)-2-((S)-3-fluoropyrrolidin-1-yl)-1-(N-methyl-2-(2-oxoindolin-6-yl)acetamido)ethyl)phenoxy)acetic acid], at most 50 nM.
The molecule `CN(C(=O)Cc1ccc2c(c1)NC(=O)C2)[C@H](CN1CC[C@H](F)C1)c1cccc(OCC(N)=O)c1` [Example 30, N-((S)-1-(3-(2-amino-2-oxoethoxy)phenyl)-2-((S)-3-fluoropyrrolidin-1-yl)ethyl)-N-methyl-2-(2-oxoindolin-6-yl)acetamide] had an EC50 of at least 1000 nM.
For `CN(C(=O)Cc1ccc2ncc(=O)[nH]c2c1)[C@H](CN1CC[C@H](O)C1)c1cccc(C(=O)O)c1` [Example 31, 3-((S)-2-((S)-3-hydroxypyrrolidin-1-yl)-1-(N-methyl-2-(3-oxo-3,4-dihydroquinoxalin-6-yl)acetamido)ethyl)benzoic acid] the value was at most 50 nM; for `CN(C(=O)Cc1ccc2c(c1)NC(=O)CS2)[C@H](CN1CC[C@H](O)C1)c1cccc(C(N)=O)c1` [Example 32, 3-((S)-2-((S)-3-hydroxypyrrolidin-1-yl)-1-(N-methyl-2-(3-oxo-3,4-dihydro-2H-benzo[b][1,4]thiazin-6-yl)acetamido)ethyl)benzamide], at most 50 nM; for `CN(C(=O)Cc1ccc2ncc(=O)[nH]c2c1)[C@H](CN1CC[C@H](O)C1)c1cccc(-c2noc(C(F)(F)F)n2)c1` [Example 34, N-((S)-2-((S)-3-hydroxypyrrolidin-1-yl)-1-(3-(5-(trifluoromethyl)-1,2,4-oxadiazol-3-yl)phenyl)ethyl)-N-methyl-2-(3-oxo-3,4-dihydroquinoxalin-6-yl)acetamide], at most 50 nM.
Turning to `Cc1nc(-c2cccc([C@@H](CN3CC[C@H](O)C3)N(C)C(=O)Cc3ccc4c(c3)NC(=O)C4)c2)no1` [Example 35, N-((S)-2-((S)-3-hydroxypyrrolidin-1-yl)-1-(3-(5-methyl-1,2,4-oxadiazol-3-yl)phenyl)ethyl)-N-methyl-2-(2-oxoindolin-6-yl)acetamide], the EC50 was at most 50 nM.
For `CN(C(=O)Cc1ccc2c(c1)NC(=O)C2)[C@H](CN1CC[C@H](O)C1)c1cccc(-c2nccs2)c1` [Example 36, N-((S)-2-((S)-3-hydroxypyrrolidin-1-yl)-1-(3-(thiazol-2-yl)phenyl)ethyl)-N-methyl-2-(2-oxoindolin-6-yl)acetamide] the value was 51 to 100 nM.
`CCC#Cc1cccc([C@@H](CN2CC[C@H](O)C2)N(C)C(=O)Cc2ccc3c(c2)NS(=O)(=O)C3)c1` [Example 37, N-((S)-1-(3-(but-1-yn-1-yl)phenyl)-2-((S)-3-hydroxypyrrolidin-1-yl)ethyl)-2-(2,2-dioxido-1,3-dihydrobenzo[c]isothiazol-6-yl)-N-methylacetamide]: the EC50 is at most 50 nM.
The figure for `CN(C(=O)Cc1ccc2c(c1)NC(=O)C2)[C@H](CN1CC[C@H](O)C1)c1cccc(C(=O)NCC(F)(F)F)c1` [Example 38, 3-((S)-2-((S)-3-hydroxypyrrolidin-1-yl)-1-(N-methyl-2-(2-oxoindolin-6-yl)acetamido)ethyl)-N-(2,2,2-trifluoroethyl)benzamide] is at most 50 nM; for `CCN(CC)C(=O)c1cccc([C@@H](CN2CC[C@H](O)C2)N(C)C(=O)Cc2ccc3c(c2)NC(=O)C3)c1` [Example 39, N,N-diethyl-3-((S)-2-((S)-3-hydroxypyrrolidin-1-yl)-1-(N-methyl-2-(2-oxoindolin-6-yl)acetamido)ethyl)benzamide] it is at most 50 nM; for `CN(C)C(=O)c1cccc([C@@H](CN2CC[C@H](O)C2)N(C)C(=O)Cc2ccc3sc(=O)[nH]c3c2)c1` [Example 40, 3-((S)-2-((S)-3-hydroxypyrrolidin-1-yl)-1-(N-methyl-2-(2-oxo-2,3-dihydrobenzo[d]thiazol-5-yl)acetamido)ethyl)-N,N-dimethylbenzamide-2,2,2-trifluoroacetate] it is at most 50 nM.
As to `CCN(CC)C(=O)COc1cccc([C@@H](CN2CC[C@H](O)C2)N(C)C(=O)Cc2ccc3c(c2)NC(=O)C3)c1` [Example 41, N-((S)-1-(3-(2-(diethylamino)-2-oxoethoxy)phenyl)-2-((S)-3-hydroxypyrrolidin-1-yl)ethyl)-N-methyl-2-(2-oxoindolin-6-yl)acetamide], the EC50 was at most 50 nM.
Regarding `CCN(CC)C(=O)COc1cccc([C@@H](CN2CC[C@H](O)C2)N(C)C(=O)Cc2ccc3sc(=O)[nH]c3c2)c1` [Example 42, N-((S)-1-(3-(2-(diethylamino)-2-oxoethoxy)phenyl)-2-((S)-3-hydroxypyrrolidin-1-yl)ethyl)-N-methyl-2-(2-oxo-2,3-dihydrobenzo[d]thiazol-5-yl)acetamide], the EC50 is at most 50 nM.
For `CN(C(=O)Cc1ccc2c(c1)NC(=O)C2)[C@H](CN1CC[C@H](O)C1)c1cc(F)cc(-c2nccs2)c1` [Example 43, N-((S)-1-(3-fluoro-5-(thiazol-2-yl)phenyl)-2-((S)-3-hydroxypyrrolidin-1-yl)ethyl)-N-methyl-2-(2-oxoindolin-6-yl)acetamide] the value was at most 50 nM; for `CN(C(=O)Cc1ccc2c(c1)NC(=O)C2)[C@H](CN1CC[C@H](O)C1)c1cccc(-c2nnn(C)n2)c1` [Example 44, N-((S)-2-((S)-3-hydroxypyrrolidin-1-yl)-1-(3-(2-methyl-2H-tetrazol-5-yl)phenyl)ethyl)-N-methyl-2-(2-oxoindolin-6-yl)acetamide], 51 to 100 nM; for `CC(C)(C(=O)N[C@H](CN1CC[C@H](O)C1)c1ccccc1)c1ccc2oc(=O)[nH]c2c1` [Example 55, N-((S)-2-((S)-3-hydroxypyrrolidin-1-yl)-1-phenylethyl)-2-methyl-2-(2-oxo-2,3-dihydrobenzo[d]oxazol-5-yl)propanamide], at most 50 nM.
For `O=C(Cc1ccc2oc(=O)[nH]c2c1)NC(CN1CCCC1)c1cnn(Cc2ccccc2)c1` (centres unmarked) [Example 62, N-(1-(1-benzyl-1H-pyrazol-4-yl)-2-(pyrrolidin-1-yl)ethyl)-2-(2-oxo-2,3-dihydrobenzo[d]oxazol-5-yl)acetamide] the value was at most 50 nM; for `CN(C(=O)Cc1ccc2oc(=O)n(Cc3ccccc3)c2c1)[C@H](CN1CCCC1)c1cccc(OCc2ccccc2)c1` [Example 64, (S)-2-(3-benzyl-2-oxo-2,3-dihydrobenzo[d]oxazol-5-yl)-N-(1-(3-(benzyloxy)phenyl)-2-(pyrrolidin-1-yl)ethyl)-N-methylacetamide], at most 50 nM; for `CN(C(=O)Cc1ccc2oc(=O)n(Cc3cccc(C#N)c3)c2c1)[C@H](CN1CC[C@H](O)C1)c1ccccc1` [Example 66, 2-(3-(3-cyanobenzyl)-2-oxo-2,3-dihydrobenzo[d]oxazol-5-yl)-N-((S)-2-((S)-3-hydroxypyrrolidin-1-yl)-1-phenylethyl)-N-methylacetamide], at most 50 nM.

By EC50 is commonly meant the concentration that produces a half-maximal response. High values mean weaker potency, low ones greater potency.
